The subject of series [1] is Human promyelocytic leukemia HL-60 cells. Nature of the series: Antiproliferation activity against HL-60 cells (MTT method). The settings on record: 48 hour incubation; for IC50: Homo sapiens, HL-60 cells, read-out: IC50, concentration at which 50% of the proliferation is inhibited. Format: cell-based. The protocol:
Human promyelocytic leukemia HL-60 cells (ATCC CCL-240) were cultured at 37° C. in RPMI 1640 medium (Gibco) containing 10% of fetal calf serum (JRH Bioscience) which had been treated at 56° C. for 30 minutes, and suspended in the same medium at a concentration of 5000 cells/90 μl. Each 90 μl portion of the suspension was distributed into each well of a 96-well plate (Falcon). To the suspension in each well was added 10 μl of one the following samples, and incubated at 37° C. in the presence of 5% CO2. The samples were 2-, 4-, 8-, 16-, 32-, 64- or 128-dilutions of filter-sterilized 200 mM aqueous solution of the compound (2) obtained in Example 1, 50 mM aqueous solution of the compound (7), 50 mM aqueous solution of the compound (9), 100 mM aqueous solution of the compound (11), 100 mM aqueous solution of the compound (14), 20 mM aqueous solution of the compound (17), 12.5 mM aqueous solution of the compound (19) or 12.5 mM aqueous solution of the compound (21) with sterile water, as well as water. After 48 hour from the initiation of the incubation, the numbers of viable cells calculated based on the absorbance measured according to the MTT method as described in “Apoptosis Jikken Protocol” (Syuzyun-sha, Seiichi Tanuma, ed., pp. 156 (1994)) were compared each other.

The subject of series [2] is HL-60 (ATCC CCL-240) cells. As to the kind of experiment: Viability of HL-60 cells by Trypan Blue staining. In kind it is cell-based. The settings on record: Homo sapiens, read-out: Viability50, concentration that results in a viability of 50%. How it is done: HL-60 (ATCC CCL-240) cells were cultured at 37° C. in RPMI 1640 medium (Bio Whittaker) containing 10% fetal calf serum (JRH) which had been treated at 56° C. for 30 minutes and suspended in RPMI 1640 medium at a concentration of 2.5×10^5 cells/4.5 ml.
[…] each of aqueous solutions of the compound (2) at a concentration of 10, 50 or 100 mM, the compound (7) at a concentration of 500, 1000 or 1500 μM, the compound (9) at a concentration of 750, 1500 or 3000 μM, the compound (11) at a concentration of 750, 1500 or 3000 μM, or the compound (14) at a concentration of 750, 1500 or 3000 μM was added to 4.5 ml of the suspension. The mixtures were incubated at 37° C. for 24 hours in the presence of 5% CO2.
A portion of the cells cultured for 24 or 48 hours as described in Example 4 was stained with 0.4% Trypan Blue and examined under an optical microscope. The number of viable cells which were not stained and the number of dead cells which were stained blue were counted. The concentration of each of the compounds (2), (7), (9), (11) and (14) that results in a viability of 50% (Viability50 mM) was determined.

The test system of series [3] is IL-10 production in RAW264.7 cells. As to the kind of experiment: Inhibition of LPS-induced IL-10 production (ELISA). Format: cell-based, Mouse. The settings on record: 0.5 ml, 5 μl of 10 mM compound (14), 1 μl of 25 mM compound (7) or 1 μl of 50 mM compound (17), 18 hours after LPS. The protocol:
RAW264.7 cells (ATCC TIB 71) were suspended in Dulbecco's modified Eagle's medium (Bio Whittaker, 12-604F) containing 10% fetal calf serum (Gibco) at a concentration of 3×10^5 cells/ml. 0.5 ml of the suspension was added to each well of a 48-well microtiter plate and the plate was incubated at 37° C. overnight in the presence of 5% CO2. 5 μl of a solution containing the compound (14) at a concentration of 10 mM in water, 1 μl of a solution of the compound (7) at a concentration of 25 mM in dimethyl sulfoxide, or 1 μl of a solution of the compound (17) at a concentration of 50 mM in dimethyl sulfoxide was added to the well. After incubation for additional 5 hours, 5 μl of a solution of lipopolysaccharide (LPS, Sigma, L-2012) at a concentration of 100 μg/ml in water was added thereto. After incubation for 18 hours, a culture supernatant was collected. The content of interleukin 10 (IL-10) in the culture supernatant was measured using enzyme immuno sandwich assay (ELISA; Mouse IL-10 ELISA Kit, Endogen). As a control, a group to which the sample or the LPS aqueous solution was not added was provided. All of the measurements were carried out in duplicate.
FIG. 27 illustrates the IL-10 concentrations in culture supernatants obtained by culturing under various culture conditions. The horizontal axis represents the culture conditions and the vertical axis represents the IL-10 concentration (pg/ml).
On the technique in general: An ELISA detects its analyte on a solid surface through an enzyme-linked reagent.

Series [4] can be described thus: Conversion into DGE in culture medium (thin-layer chromatography). Format: in vitro ADME. The settings on record: 10 mM in RPMI 1640 medium with 10% calf serum, 37° C., 4 hours. How it is done: The compound (7) or the compound (9) synthesized in Example 1 was dissolved at a final concentration of 10 mM in RPMI 1640 medium supplemented with 10% calf serum. These samples were allowed to stand at 37° C. for 4 hours. […] each of the samples was then subjected to thin-layer chromatography using chloroform:methanol=5:1 as a developing solvent. Detection was carried out using orcinol-sulfuric acid.
For each sample, a spot with Rf value of 0.5, the same value as that for the compound of general formula IV in which Z is CH2OH and Y is H (L-glycero-1,5-epoxy-1αβ,6-dihydroxy-cis-hex-3-en-2-one, hereinafter referred to as DGE), was detected.

Where two headings read alike, the source gives them in different places.

Turning to `O=C[C@H](O)[C@H]1OC[C@@H](O)[C@@H]1OC(=O)c1ccccc1` [Compound (7), 4-O-benzoyl-3,6-anhydro-D-galactose], the “antiproliferation activity against HL-60 cells” value (“antiproliferation activity” for short) in series [1] is “exhibited antiproliferation activities”. For the same compound, the values for the IC50 in series [1], in series [2] (24 hours) and in series [2] (48 hours) were 104 µM, 123 µM and 101 µM, respectively. Moreover, in series [3], the “inhibition of LPS-induced IL-10 production” value (shortened to “inhibition”) was “inhibition of LPS-induced IL-10 production was observed”.

With `OCC1OC(OC2C(CO)OC(OC3C(CO)OC(OC4C(O)COC4C(O)C(O)O)C(O)C3O)C(O)C2O)C(O)C(O)C1O` [Compound (14), 4-O-β-maltotoriosyl-3,6-anhydro-D-galactose], the “conversion into DGE (spot with Rf value of 0.5, the same value as DGE)” value in series [4] is “conversion into DGE was also observed”. Besides, in series [1], the “antiproliferation activity” value was “exhibited antiproliferation activities”. Further, the IC50 in series [1] was 113 µM; in series [2] (24 hours), 551 µM; in series [2] (48 hours) it was 150 µM. In addition, in series [3], the “inhibition” value is reported as “inhibition of LPS-induced IL-10 production was observed”.

With `O=C[C@H](O)[C@H]1OC[C@@H](O)[C@@H]1OCc1ccccc1` [Compound (17), 4-O-benzyl-3,6-anhydro-D-galactose], the “conversion into DGE (spot with Rf value of 0.5, the same value as DGE)” value in series [4] was “conversion into DGE was also observed”. For the same compound, in series [1], the “antiproliferation activity” value is “exhibited antiproliferation activities” and the IC50 came out at 205 µM. For the same compound, in series [3], the “inhibition” value was “inhibition of LPS-induced IL-10 production was observed”.

The values are drawn from patent US6518302B1, “Remedies” (Takara Shuzo Co., Ltd., priority 1999, dated 2003).
